Experimental data published in patent publication US20040038947A1, “Method of treating ischemia/reperfusion injury with nitroxyl donors” (The Gov. of the U.S. of America as represented by the Sec. …, priority 2002, published 2004).
Values belong to the compound of their own block, whether it stands above or below them.

Key:
Isolated rat hearts [1] = assay: Myocardial injury: infarct area by nitro blue tetrazolium staining
Procedure: (§1) Experimental Protocols. Hearts were allowed to stabilize for 30 min, and baseline parameters were recorded. Typically, coronary flow was adjusted within the first 10 min and kept constant from thereon. After 30 min stabilization, hearts were randomly assigned to one of the treatment groups reported below (n=12 in each group), and then subjected to 30 min global, no-flow ischemia, followed by 30 min of reperfusion (I/R) (see FIG. 1). Pacing of the hearts was stopped at the beginning of the ischemic period and restarted after the third minute of reperfusion.
(§2) Hearts in the control group (Group 1) were perfused with buffer for an additional 29 min after stabilization. Group 2 hearts were exposed to AS (1 μM final concentration) for 19 min followed by a 10 min buffer wash-out period. Group 3 hearts were exposed to DEA/NO (0.5 μM final concentration) administered in the same manner as AS. The concentration of DEA/NO was only one half of that of AS since DEA/NO releases up to two moles of […] per mole of donor molecule. In Group 4, a train of three cycles of 3 min global ischemia followed by 5 min of reperfusion was applied after the stabilization phase, followed by a final 10 min buffer wash-out period (IPC protocol).
(§3) Group 5 hearts were exposed to the vehicle (NaOH, final concentration 100 nM) used to dissolve both AS and DEA/NO. To test the influence of switching the myocardial redox state on AS-induced effects, in an additional group of hearts (Group 6) AS was co-infused with N-acetyl-L-cysteine (NAC, 4 mM final concentration). For comparison, hearts were also exposed to NAC alone (Group 7). […]
To corroborate the data relative to myocardial injury, determined by LDH release, infarct areas were also assessed in a blinded fashion. […] The weight of the necrotic and non-necrotic tissues was then determined and the necrotic mass expressed as a percentage of total left ventricular mass.

Isolated rat hearts [2] = assay: Myocardial injury: LDH release in coronary effluent during reperfusion; conditions: pre-treatment; control 686±14 U/g wet wt; FIG. 4A
Procedure: as §1
as §2, with “In Group 4, a train of three cycles of 3 min global ischemia followed by 5 min of reperfusion was applied after the stabilization phase, followed by a final 10 min buffer wash-out period (IPC protocol).” left out
Assessment of myocardial injury. […] LDH release was measured as previously described by Bergmeyer & Bernt, “Methods of Enzymatic Analysis,” Verlag Chemie (1974). Data are expressed as cumulative values for the entire reflow period.

Nitroxyl donation pH = format: physicochemical; conditions: donates from this pH to about 10
From the text: “Nitroxyl donation pH” is the pH at which and above which a nitroxyl-donating compound donates nitroxyl.
Further, compounds are easily tested for nitroxyl donation with routine experiments. Although it is impractical to directly measure whether nitroxyl is donated, several tests are accepted for determining whether a compound donates nitroxyl. For example, the compound of interest can be placed in solution, for example in water, in a sealed container. After sufficient time for disassociation has elapsed, such as from several minutes to several hours, the headspace gas is withdrawn and analyzed to determine its composition, such as by gas chromatography and/or mass spectroscopy. […] Nitroxyl donation also can be detected by exposing the target donor to metmyoglobin (Mb^3+). Nitroxyl reacts with Mb^3+ to form an Mb^2+-NO complex, which can be detected by changes in the ultraviolet/visible spectrum or by Electron Paramagnetic Resonance (EPR). […]
Testing for nitroxyl donation in some cases is performed at a range of pHs to determine the nitroxyl donation pH of the nitroxyl-donating compound. […] After the lowest pH at which nitroxyl donation occurs in a first set of tests is found, additional tests can be performed with narrower ranges of pH around the first determined nitroxyl donation pH to obtain a more specific nitroxyl donation pH. […]

Isolated rat hearts [3] = assay: Ventricular function (contracture, contractile recovery) of isolated rat hearts in 30 min global ischemia / 30 min reperfusion; conditions: for Maximal increment of LVEDP during reperfusion: compared to control, vehicle, NAC and NAC+AS treated hearts (p<0.05), FIG. 2B
Procedure: (§4) Isolated heart perfusion. Each animal was anesthetized with 1 g/kg urethane i.p. 10 min after heparin (2,500 U, i.m.) treatment. The chest was opened, and the heart was rapidly excised, placed in ice-cold buffer solution and weighed. Isolated rat hearts were attached to the perfusion apparatus and retrogradely perfused with oxygenated buffer solution at 37° C. The hearts were instrumented as previously described in Rastaldo et al., “P-450 metabolite of arachidonic acid mediates bradykinin-induced negative inotropic effect,” Am. J. Physiol., 280:H2823-H2832 (2001), and Paolocci et al. “cGMP-independent inotropic effects of nitric oxide and peroxynitrite donors: potential role for nitrosylation,” Am. J. Physiol., 279: H1982-H1988 (2000). The flow was maintained constant (9±2 mL/min/g wet weight) to reach a typical coronary perfusion pressure of 85-90 mm Hg. A constant proportion of 10% of the flow rate was applied by means of one of two perfusion pumps (Terumo, Tokyo, Japan) using a 50 mL syringe connected to the aortic cannula. Drug applications (see Experimental Protocols) were performed by switching from the syringe containing buffer alone to the syringe of the other pump containing the drug dissolved in the vehicle at a concentration 10× to the desired final concentration in the heart. A small hole in the left ventricular wall allowed drainage of the thebesian flow, and a polyvinyl-chloride balloon was placed into the left ventricle and connected to an electromanometer for recording of left ventricular pressure (LVP). The hearts were electrically paced at 280-300 bpm and kept in a temperature-controlled chamber (37° C.). Coronary perfusion pressure (CPP) and coronary flow were monitored with a second electromanometer and an electromagnetic flow-probe, respectively, both placed along the perfusion line. Left ventricular pressure, coronary flow and coronary perfusion pressure were recorded using a TEAC R-71 recorder, digitized at 1000 Hz and analyzed off-line with DataQ-Instruments/CODAS software, which allowed quantification of the maximum rate of increase of LVP during systole (dP/dtmax).
as §1, §2
Group 5 hearts were exposed to the vehicle (NaOH, final concentration 100 nM) used to dissolve both AS and DEA/NO. […]

Isolated rat hearts [4] = assay: Pre-ischemic cardiac function of isolated perfused rat hearts (Table 1); conditions: mean
Procedure: as §4
Hearts were perfused with Krebs-Henseleit solution gassed with 95% O2 and 5% CO2 of the following composition: 17.7 mM sodium bicarbonate, 127 mM NaCl, 5.1 mM KCl, 1.5 mM CaCl2, 1.26 mM MgCl2, 11 mM D-glucose, supplemented with 5 μg/mL lidocaine.
as §1, §2, §3

anesthetized rabbits = conditions: administered during ischemia and 5 minutes prior to reperfusion; cited from earlier work
rat renal tissue = conditions: administered during ischemia and 5 minutes before reperfusion; rat kidney; cited from earlier work
isolated rat heart = assay: Example 2: coronary perfusion pressure during reperfusion; conditions: FIG. 6
Procedure: FIG. 6 is a graph showing the coronary perfusion pressures for the IPA/NO intervention of FIG. 5 and an intervention in an isolated rat heart with a vehicle for the same protocol as was used with AS and vehicle in FIG. 1. IPA/NO is represented by diamonds; vehicle is represented by squares.
Isolated heart perfusion. Each animal was anesthetized with 1 g/kg urethane i.p. 10 min after heparin (2,500 U, i.m.) treatment. The chest was opened, and the heart was rapidly excised, placed in ice-cold buffer solution and weighed. Isolated rat hearts were attached to the perfusion apparatus and retrogradely perfused with oxygenated buffer solution at 37° C. The hearts were instrumented as previously described in Rastaldo et al., “P-450 metabolite of arachidonic acid mediates bradykinin-induced negative inotropic effect,” Am. […] Coronary perfusion pressure (CPP) and coronary flow were monitored with a second electromanometer and an electromagnetic flow-probe, respectively, both placed along the perfusion line. Left ventricular pressure, coronary flow and coronary perfusion pressure were recorded using a TEAC R-71 recorder, digitized at 1000 Hz and analyzed off-line with DataQ-Instruments/CODAS software, which allowed quantification of the maximum rate of increase of LVP during systole (dP/dtmax). […]

Isolated rat hearts [5] = assay: Example 2: infarct size after ischemia/reperfusion, different set of isolated rat hearts; conditions: same protocol as AS in Example 1, only one rat heart per intervention, FIG. 5
Procedure: FIG. 5 is a graph showing infarct size following 30 min of global ischemia and 30 min reperfusion for interventions in a different set of isolated rat hearts for interventions with control; ischemic preconditioning (IP); IPA/NO; AS; and DEA/NO.
To corroborate the data relative to myocardial injury, determined by LDH release, infarct areas were also assessed in a blinded fashion. At the end of the course (30 min reperfusion), each heart was rapidly removed from the perfusion apparatus, and the LV dissected into 2-3 mm circumferential slices. Following 15 min of incubation at 37° C. in 0.1% solution of nitro blue tetrazolium in phosphate buffer as described in Ma et al., “Opposite effects of nitric oxide and nitroxyl on postischemic myocardial injury,” Proc. Natl. Acad. Sci., 96:14617-14622 (1999), unstained necrotic tissue was separated from the stained viable tissue. The areas of viable and necrotic tissue were carefully separate by and independent observer (D. Mancardi, C. Penna, or R. Rastaldo) who was not aware of the origin of the hearts. The weight of the necrotic and non-necrotic tissues was then determined and the necrotic mass expressed as a percentage of total left ventricular mass.
The same methods as employed in Example 1 were used to assess the ischemia/reperfusion injury reducing effects of the nitroxyl donor IPA/NO. […]

[6] = End of stabilization period (baseline of the group, before treatment)
[7] = Post-treatment (pre-ischemic), AS 1 μM, DEA/NO 0.5 μM, NAC 4 mM, 19 min then 10 min wash-out

Nitroxyl donation pH (pH at and above which nitroxyl is donated) (Nitroxyl donation pH): about 3
Compound: [Na+].[Na+].[O-][N+]([O-])=NO [AS, sodium trioxodinitrate]
Infarct size reduction compared to controls (Isolated rat hearts [1]; AS 1 μM pre-ischemic, p<0.01 vs controls): 55%
LDH release into the coronary venous effluent during reperfusion (Isolated rat hearts [2]): significantly reduced
Post-ischemic recovery of developed LVP (Isolated rat hearts [3]; 30 min ischemia, 30 min reperfusion, vs pre-ischemic value, controls 38%, AS 1 μM pre-ischemic, FIG. 3A): about 55%
Post-ischemic recovery of dP/dtmax (Isolated rat hearts [3]; 30 min ischemia, 30 min reperfusion, vs pre-ischemic value, controls 39%, AS 1 μM pre-ischemic, FIG. 3B): 57%
Maximal increment of LVEDP during reperfusion (Isolated rat hearts [3]): significantly lower
CPP (coronary perfusion pressure) (Isolated rat hearts [4]; [6]): 89 mmHg
DP/dtmax (Isolated rat hearts [4]; [6]): 3145 mmHg/s
Developed LVP (Isolated rat hearts [4]; [6]): 99 mmHg
LVEDP (left ventricular end-diastolic pressure) (Isolated rat hearts [4]; [6]): 9 mmHg
CPP (coronary perfusion pressure) (Isolated rat hearts [4]; [7]): 88 mmHg
DP/dtmax (Isolated rat hearts [4]; [7]): 3223 mmHg/s
Developed LVP (Isolated rat hearts [4]; [7]): 98 mmHg
LVEDP (left ventricular end-diastolic pressure) (Isolated rat hearts [4]; [7]): 10 mmHg
Effect on myocardial ischemia/reperfusion injury (anesthetized rabbits): increased myocardial ischemia/reperfusion injury
Effect on neutrophil infiltration into renal tissue (rat renal tissue): contributed to neutrophil infiltration into the tissue

Compound: CCN(CC)/[N+]([O-])=N/O.CCNCC [DEA/NO, diethylamine diazeniumdiolate]
Protective effect: infarct size change vs controls (Isolated rat hearts [1]; DEA/NO 0.5 μM pre-ischemic, p<0.05 vs controls, weaker than AS or IPC): −30%
LDH release into the coronary venous effluent during reperfusion (Isolated rat hearts [2]): significantly reduced
Maximal increment of LVEDP during reperfusion (Isolated rat hearts [3]): significantly lower
Recovering contractile function (developed LVP, dP/dtmax) after ischemia/reperfusion (Isolated rat hearts [3]; vs control group, p=0.08 for dP/dtmax, p=0.07 for developed LVP, DEA/NO 0.5 μM): less effective
CPP (coronary perfusion pressure) (Isolated rat hearts [4]; [6]): 91 mmHg
DP/dtmax (Isolated rat hearts [4]; [6]): 3047 mmHg/s
Developed LVP (Isolated rat hearts [4]; [6]): 98 mmHg
LVEDP (left ventricular end-diastolic pressure) (Isolated rat hearts [4]; [6]): 8 mmHg
CPP (coronary perfusion pressure) (Isolated rat hearts [4]; [7]): 90 mmHg
DP/dtmax (Isolated rat hearts [4]; [7]): 2976 mmHg/s
Developed LVP (Isolated rat hearts [4]; [7]): 99 mmHg
LVEDP (left ventricular end-diastolic pressure) (Isolated rat hearts [4]; [7]): 9 mmHg

Compound: CC(C)N[N+]([O-])=N[O-].[Na+] [IPA/NO, isopropylamine/NO]
Nitroxyl donation pH (pH at and above which nitroxyl is donated) (Nitroxyl donation pH): about 5.5
Coronary perfusion pressure during reperfusion (isolated rat heart): returned to normal
Infarct size reduction as compared to control (Isolated rat hearts [5]): about 36%

Compound: CC(=O)N[C@@H](CS)C(=O)O [NAC, N-acetyl-L-cysteine]
Infarcted area, expressed as a percentage of the left ventricle (Isolated rat hearts [1]; 30 min global ischemia, 30 min reperfusion, control 39±2%, FIG. 4): 45+2%
CPP (coronary perfusion pressure) (Isolated rat hearts [4]; [6]): 88 mmHg
DP/dtmax (Isolated rat hearts [4]; [6]): 2760 mmHg/s
Developed LVP (Isolated rat hearts [4]; [6]): 89 mmHg
LVEDP (left ventricular end-diastolic pressure) (Isolated rat hearts [4]; [6]): 8 mmHg
CPP (coronary perfusion pressure) (Isolated rat hearts [4]; [7]): 88 mmHg
DP/dtmax (Isolated rat hearts [4]; [7]): 2481 mmHg/s
Developed LVP (Isolated rat hearts [4]; [7]): 86 mmHg
LVEDP (left ventricular end-diastolic pressure) (Isolated rat hearts [4]; [7]): 10 mmHg
